Columns and labels:
[1] = test system: A2058; assay: Cytotoxicity against Homo sapiens (human) A2058 cells assessed as cell viability at 10^-4 M after 96 hr by trypan blue exclusion assay relative to control; type: functional; conditions: A2058, 96 h, read-out: Activity
[2] = Cytotoxicity against Homo sapiens (human) FL cells assessed as cell viability at 10^-4 M after 48 hr by trypan blue exclusion assay relative to control; type: cell-based; conditions: read-out: Activity
[3] = test system: RD; assay: Cytotoxicity against Homo sapiens (human) RD cells assessed as cell viability at 10^-4 M after 72 hr by trypan blue exclusion assay relative to control; type: functional; conditions: read-out: Activity
[4] = test system: A2058; assay: Cytotoxicity against Homo sapiens (human) A2058 cells assessed as cell viability at 10^-4 M after 48 hr by trypan blue exclusion assay relative to control; type: functional; conditions: A2058, 48 h, read-out: Activity
[5] = test system: RD; assay: Cytotoxicity against Homo sapiens (human) RD cells assessed as cell viability at 10^-4 M after 48 hr by trypan blue exclusion assay relative to control; type: functional; conditions: read-out: Activity
[6] = Cytotoxicity against Homo sapiens (human) FL cells assessed as cell viability at 10^-4 M after 96 hr by trypan blue exclusion assay relative to control; type: cell-based; conditions: read-out: Activity
[7] = test system: A2058; assay: Cytotoxicity against Homo sapiens (human) A2058 cells assessed as cell viability at 10^-4 M after 72 hr by trypan blue exclusion assay relative to control; type: functional; conditions: A2058, 72 h, read-out: Activity
[8] = Cytotoxicity against Homo sapiens (human) FL cells assessed as cell viability at 10^-4 M after 72 hr by trypan blue exclusion assay relative to control; type: cell-based; conditions: read-out: Activity
[9] = test system: RD; assay: Cytotoxicity against Homo sapiens (human) RD cells assessed as cell viability at 10^-4 M after 24 hr by trypan blue exclusion assay relative to control; type: functional; conditions: read-out: Activity
[10] = test system: A2058; assay: Cytotoxicity against Homo sapiens (human) A2058 cells assessed as cell viability at 10^-4 M after 24 hr by trypan blue exclusion assay relative to control; type: functional; conditions: A2058, 24 h, read-out: Activity
[11] = Cytotoxicity against Homo sapiens (human) FL cells assessed as cell viability at 10^-4 M after 24 hr by trypan blue exclusion assay relative to control; type: cell-based; conditions: read-out: Activity
[12] = test system: RD; assay: Cytotoxicity against Homo sapiens (human) RD cells assessed as cell viability at 10^-4 M after 96 hr by trypan blue exclusion assay relative to control; type: functional; conditions: read-out: Activity

`CCOC(=O)N1c2ccccc2N(C(=O)OCC)C1CC(=O)/C=C/c1ccccc1` showed a viability at 100 µM [1] of 7.14%, a viability at 48 h, 100 µM [2] of 77.9% and a viability at 100 µM [3] of 52.9%. It also gave a viability at 100 µM [4] of 12.1%, a viability at 100 µM [5] of 59.1% and a viability at 96 h, 100 µM [6] of 81.1%. The viability at 100 µM [7] was 8.14%, the viability at 72 h, 100 µM [8] was 83.6% and the viability at 100 µM [9] was 45.5%. For the same compound, the viability at 100 µM [10] was 14.7%, the viability at 24 h, 100 µM [11] was 111% and the viability at 100 µM [12] was 39.4%.
With `CCOC(=O)N1c2ccccc2N(C(=O)OCC)C1CC(C)=O` the viability at 100 µM [1] was 0%, the viability at 48 h, 100 µM [2] was 0% and the viability at 100 µM [3] was 0%. The viability at 100 µM [4] was 0%, the viability at 100 µM [5] was 0% and the viability at 96 h, 100 µM [6] was 0%. For the same compound, the viability at 100 µM [7] was 0%, the viability at 72 h, 100 µM [8] was 0% and the viability at 100 µM [9] was 0%. The viability at 100 µM [10] was 0%, the viability at 24 h, 100 µM [11] was 0% and the viability at 100 µM [12] was 0%.
With `CCOC(=O)N1c2cc(C)c(C)cc2N(C(=O)OCC)C1CC(C)=O` the viability at 100 µM [1] was 70.4%, the viability at 48 h, 100 µM [2] was 31.2% and the viability at 100 µM [3] was 24.3%. The viability at 100 µM [4] was 57.6%, the viability at 100 µM [5] was 40.9% and the viability at 96 h, 100 µM [6] was 39.4%. For the same compound, the viability at 100 µM [7] was 69.8%, the viability at 72 h, 100 µM [8] was 15.4% and the viability at 100 µM [9] was 31.2%. For the same compound, the viability at 100 µM [10] was 82.3%, the viability at 24 h, 100 µM [11] was 111% and the viability at 100 µM [12] was 17.9%.
With `CCOC(=O)N1c2ccccc2N(C(=O)OCC)C1CC(=O)c1ccccc1` the viability at 100 µM [1] was 65.3%, the viability at 48 h, 100 µM [2] was 83.1% and the viability at 100 µM [3] was 92.9%. The viability at 100 µM [4] was 106%, the viability at 100 µM [5] was 93.2% and the viability at 96 h, 100 µM [6] was 77.3%. It also gave a viability at 100 µM [7] of 53.5%, a viability at 72 h, 100 µM [8] of 74.5% and a viability at 100 µM [9] of 86.4%. For the same compound, the viability at 100 µM [10] was 94.1%, the viability at 24 h, 100 µM [11] was 75.7% and the viability at 100 µM [12] was 88.1%.
Compound `CCOC(=O)N1c2cc(C)c(C)cc2N(C(=O)OCC)C1CC(=O)c1ccccc1` has a viability at 100 µM [1] of 31.6%, a viability at 48 h, 100 µM [2] of 46.8% and a viability at 100 µM [3] of 47.1%. It also gave a viability at 100 µM [4] of 83.3%, a viability at 100 µM [5] of 52.3% and a viability at 96 h, 100 µM [6] of 62.1%. It also gave a viability at 100 µM [7] of 50%, a viability at 72 h, 100 µM [8] of 60% and a viability at 100 µM [9] of 45.5%. It also gave a viability at 100 µM [10] of 97.1%, a viability at 24 h, 100 µM [11] of 67.6% and a viability at 100 µM [12] of 32.1%.
In the case of `CCOC(=O)N1c2ccccc2N(C(=O)OCC)C1CC(=O)c1ccc(O)cc1`, the viability at 100 µM [1] is reported as 6.12%, the viability at 48 h, 100 µM [2] is reported as 11.7% and the viability at 100 µM [3] is reported as 5.71%. It also gave a viability at 100 µM [4] of 12.1%, a viability at 100 µM [5] of 13.6% and a viability at 96 h, 100 µM [6] of 4.55%. It also gave a viability at 100 µM [7] of 9.3%, a viability at 72 h, 100 µM [8] of 7.27% and a viability at 100 µM [9] of 27.3%. It also gave a viability at 100 µM [10] of 35.3%, a viability at 24 h, 100 µM [11] of 29.7% and a viability at 100 µM [12] of 3.57%.
`CCOC(=O)N1c2cc(C)c(C)cc2N(C(=O)OCC)C1CC(=O)c1ccc(OC)cc1` showed a viability at 100 µM [1] of 33.7%, a viability at 48 h, 100 µM [2] of 49.4% and a viability at 100 µM [3] of 58.6%. The viability at 100 µM [4] was 54.5%, the viability at 100 µM [5] was 43.2% and the viability at 96 h, 100 µM [6] was 65.9%. For the same compound, the viability at 100 µM [7] was 38.4%, the viability at 72 h, 100 µM [8] was 63.6% and the viability at 100 µM [9] was 31.2%. The viability at 100 µM [10] was 55.9%, the viability at 24 h, 100 µM [11] was 75.7% and the viability at 100 µM [12] was 57.1%.
`CCOC(=O)N1c2ccccc2N(C(=O)OCC)C1CC(=O)Cc1ccccc1` gave a viability at 100 µM [1] of 6.12%, a viability at 48 h, 100 µM [2] of 10.4% and a viability at 100 µM [3] of 14.3%. For the same compound, the viability at 100 µM [4] was 21.2%, the viability at 100 µM [5] was 31.8% and the viability at 96 h, 100 µM [6] was 3.03%. The viability at 100 µM [7] was 11.6%, the viability at 72 h, 100 µM [8] was 5.45% and the viability at 100 µM [9] was 63.6%. The viability at 100 µM [10] was 41.2%, the viability at 24 h, 100 µM [11] was 27% and the viability at 100 µM [12] was 11.9%.
Work on `CCOC(=O)N1c2cc(C)c(C)cc2N(C(=O)OCC)C1CC(=O)/C=C/c1ccccc1` yielded a viability at 100 µM [1] of 75.5%, a viability at 48 h, 100 µM [2] of 67.5% and a viability at 100 µM [3] of 81.4%. It also gave a viability at 100 µM [4] of 86.4%, a viability at 100 µM [5] of 70.5% and a viability at 96 h, 100 µM [6] of 74.2%. It also gave a viability at 100 µM [7] of 80.2%, a viability at 72 h, 100 µM [8] of 60% and a viability at 100 µM [9] of 86.4%. It also gave a viability at 100 µM [10] of 82.3%, a viability at 24 h, 100 µM [11] of 94.6% and a viability at 100 µM [12] of 79.8%.
